The values below come from US8076486B2, “Heteroaryl-substituted arylaminopyridine derivatives as MEK inhibitors” (Merck Serono S.A., priority 2006, dated 2011).

Experiment [1] deals with human MEK1 (Homo sapiens, UniProt Q02750, S218E/S222E). The experiment can be described thus: MEK-1 Enzyme Assay (LANCE-HTRF). It counts as biochemical. The settings on record: MEK-1 EE, ERK-2K52A substrate, 9 uM ATP, 1.5 hrs. Here is the method:
Assay 1: MEK-1 Enzyme Assay (LANCE-HTRF)
Inhibition of human MEK1 kinase activity was monitored with a homogenous, fluorescence-based assay. The assay uses time resolved fluorescence resonance energy transfer to probe for phosphorylation of ERK1 by MEK1. The detailed procedure is described in the following:
Constititutively active MEK-1 EE (150 ng/well) and ERK-2K52A (110 ng/well) were incubated in black, 384 well Optiplates (Perkin Elmer) for 1.5 hrs at room temperature, in the presence of increasing concentrations of inhibitors. The total reaction volume was 50 ul. The inhibitors were serial diluted in kinase buffer (9 uM ATP, 50 mM Tris-Hcl pH 8.0, 10 mM MgCl2, 1 mM DTT and 100 uM Na3VO4), to a final concentration of 1% DMSO. At the end of the incubation, the enzyme reaction was quenched by adding 50 ul of assay buffer containing 50 mM Tris-Hcl, 50 mM EDTA, 0.1% BSA and a mixture of 1.25 ug/mL europium labeled anti-phosphotyrosine mAb (Perkin Elmer) and 5 ug/mL of allophycocyanin labeled anti-GST antibody (CIS-US). Plates were agitated on a plate shaker for 30 minutes and the phosphorylation of the ERK-2K52A substrate was measured by homogeneous time resolved fluorescence (HTRF) at 340 nm excitation and […] emission filters on the VICTOR V fluorescence plate reader. Phosphorylation is expressed as a ratio of 665 nM signal×10,000/615 nM signal. To assess the inhibitory potential of the compounds, IC50-values were determined.
(In TR-FRET formats the signal depends on donor and acceptor labels being close together.)

Experiment [2] has as its system Murine colon C26 cells. As to the kind of experiment: Tumor Cell Proliferation Assay (ATP Lite), C26. It counts as cell-based. The settings on record: Mus musculus, 96 h, 4 days, ATPlite. The method, then: (§1) Assay 2: Tumor Cell Proliferation Assays (ATP Lite)
(§2) Murine colon C26 (1500 cells/well), human melanoma A375 (2000 cells/well), or human pancreatic MiaPaCa-2 cells (2000 cells/well) were plated in white, 96 well plates (Corning) in growth media (DMEM with 10% fetal bovine serum, 2 mM glutamine for C26 and MiaPaCa-2, and RPMI with 10% fetal bovine serum, 2 mM glutamine for A375) and cultured overnight at 37° C. in a humidified, 5% CO2 incubator. Inhibitors were serially diluted in 100% DMSO and subsequently added to the cells, in growth media, to reach a final concentration of 0.25% DMSO. The cells were incubated for 4 days in the presence of the test compounds and the proliferation was quantitated using the ATPlite cell proliferation kit (Packard).
(Cellular ATP, detected with luciferase, serves as a proxy for viable cell number.)

The subject of experiment [3] is human melanoma A375 cells. The experiment can be described thus: Tumor Cell Proliferation Assay (ATP Lite), A375. The experiment is classed as cell-based. The settings on record: A-375, 96 h, 4 days, ATPlite. The method, then: as §1, §2
The test system of experiment [4] is human pancreatic MiaPaCa-2 cells. As to the kind of experiment: Tumor Cell Proliferation Assay (ATP Lite), MiaPaCa-2. The experiment is classed as cell-based. The settings on record: MIA PaCa-2, 96 h, 4 days, ATPlite, read-out: MiaPaCa2 cell proliferation IC50. The method, then:
as §1, §2

In experiment [5] the test system is A375 Xenograft. The experiment can be described thus: Tumor Growth Inhibition in A375 Xenograft Studies (Malignant Melanoma Model). It counts as in vivo, nude (nu/nu) mice. The settings on record: A375 xenograft in male nude mice, to Day 14. Here is the method:
In vivo Efficacy Evaluation: Tumor Growth Inhibition in A375 Xenograft Studies (Malignant Melanoma Model)
Male nude (nu/nu) mice (100 total, 24-26 g body wt) were purchased from Charles River Laboratories. Animals were injected subcutaneously above the right foreleg with 5×10^6 A375 cells in 100 ul of PBS. Tumors were measured with calipers 4, 7, 11 and 14 days after cells were implanted. Tumor length (l) and width (w) were measured and tumor volume was calculated with the equation l*w^2/2. At 16 days after cancer cells were implanted, tumors had reached an average volume of 93 mm^3, at which time the animals were sorted into 6 groups so that each group had the same mean tumor volume. The vehicle used for dosing the compound in suspension was 10% Tween 80 in water.
Treatments began on the afternoon of the 16th day after cancer cell injections, which was designated as Day 0. Tumor volume and body weight was measured for each animal 3 times per week until Day 14. On Day 14, all animals were euthanized, tumors removed and weighted.

human MEK1, sequence (Q02750 whole entry S218E/S222E): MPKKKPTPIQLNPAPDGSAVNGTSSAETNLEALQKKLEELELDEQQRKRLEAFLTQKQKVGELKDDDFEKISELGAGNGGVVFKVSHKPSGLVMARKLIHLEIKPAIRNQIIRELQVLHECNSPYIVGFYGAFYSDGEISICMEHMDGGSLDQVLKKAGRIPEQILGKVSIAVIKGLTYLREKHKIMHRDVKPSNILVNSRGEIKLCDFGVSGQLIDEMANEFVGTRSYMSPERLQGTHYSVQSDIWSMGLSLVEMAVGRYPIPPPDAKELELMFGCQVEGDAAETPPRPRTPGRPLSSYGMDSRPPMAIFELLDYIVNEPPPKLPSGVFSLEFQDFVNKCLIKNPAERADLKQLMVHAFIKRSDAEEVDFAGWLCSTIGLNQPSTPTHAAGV

As for `Nc1nnc(-c2ccncc2Nc2ccc(I)cc2F)o1` [Example 2, [4-(5-Amino-[1,3,4]oxadiazol-2-yl)-pyridin-3-yl]-(2-fluoro-4-iodo-phenyl)-amine], the IC50 in experiment [1], in experiment [2], in experiment [3] and in experiment [4] was no more than 3000 nM each time. The entries for the “effect on tumor growth” value in experiment [5] (dose of 0.5 mg/kg) and in experiment [5] (dose of 10 mg/kg) were “significant tumor growth inhibition” and “tumor regression”, respectively.

For `CN(C)C(=O)CNc1nnc(-c2ccncc2Nc2ccc(I)cc2F)o1` [Example 47, 2-{5-[3-(2-Fluoro-4-iodo-phenylamino)-pyridin-4-yl]-[1,3,4]oxadiazol-2-ylamino}-N,N-dimethyl-acetamide], the IC50 in experiment [1], in experiment [2], in experiment [3] and in experiment [4] was no more than 3000 nM in each case.

Consider `Nc1nnc(-c2c(F)cncc2Nc2ccc(I)cc2F)o1` [Example 48, [4-(5-Amino-[1,3,4]oxadiazol-2-yl)-5-fluoro-pyridin-3-yl]-(2-fluoro-4-iodo-phenyl)-amine], for which the IC50 in experiment [1], in experiment [2], in experiment [3] and in experiment [4] was no more than 3000 nM throughout.

As for `Fc1cc(I)ccc1Nc1cnccc1-c1nnc(NCC2CCCO2)o1` (centres unmarked) [Example 49, (2-Fluoro-4-iodo-phenyl)-(4-{5-[(tetrahydro-furan-2-ylmethyl)-amino]-[1,3,4]oxadiazol-2-yl}-pyridin-3-yl)-amine], the IC50 in experiment [1], in experiment [2], in experiment [3] and in experiment [4] was no more than 3000 nM each time.

For the molecule `Fc1cc(I)ccc1Nc1cnccc1-c1nnc(NCC2CCCO2)s1` (centres unmarked) [Example 50, (2-Fluoro-4-iodo-phenyl)-(4-{5-[(tetrahydro-furan-2-ylmethyl)-amino]-[1,3,4]thiadiazol-2-yl}-pyridin-3-yl)-amine], the IC50 in experiment [1], in experiment [2], in experiment [3] and in experiment [4] was no more than 3000 nM throughout.

Turning to `CCOC(=O)C(C)Nc1nnc(-c2ccncc2Nc2ccc(I)cc2F)o1` (centres unmarked) [Example 52, 2-{5-[3-(2-Fluoro-4-iodo-phenylamino)-pyridin-4-yl]-[1,3,4]oxadiazol-2-ylamino}-propionic acid ethyl ester], the IC50 in experiment [1], in experiment [2], in experiment [3] and in experiment [4] was no more than 3000 nM in each case.

Turning to `CC(Nc1nnc(-c2ccncc2Nc2ccc(I)cc2F)o1)C(=O)O` (centres unmarked) [Example 53, 2-{5-[3-(2-Fluoro-4-iodo-phenylamino)-pyridin-4-yl]-[1,3,4]oxadiazol-2-ylamino}-propionic acid], the IC50 in experiment [1] is no more than 3000 nM; in experiment [2] it was no more than 3000 nM; in experiment [3], no more than 3000 nM; in experiment [4], 3000 to 25000 nM.

Regarding `Nc1nnc(-c2ccncc2Nc2ccc(I)cc2F)s1` [Example 54, [4-(5-Amino-[1,3,4]thiadiazol-2-yl)-pyridin-3-yl]-(2-fluoro-4-iodo-phenyl)-amine], the IC50 in experiment [1], in experiment [2], in experiment [3] and in experiment [4] was no more than 3000 nM each time.

In the case of `Cn1c(-c2ccncc2Nc2ccc(I)cc2F)n[nH]c1=O` [Example 55, 5-[3-(2-Fluoro-4-iodo-phenylamino)-pyridin-4-yl]-4-methyl-2,4-dihydro-[1,2,4]triazol-3-one], the IC50 in experiment [1], in experiment [2], in experiment [3] and in experiment [4] was no more than 3000 nM throughout.

Regarding `Fc1cc(I)ccc1Nc1cnccc1-c1ncon1` [Example 56, (2-Fluoro-4-iodo-phenyl)-(4-[1,2,4]oxadiazol-3-yl-pyridin-3-yl)-amine], the IC50 in experiment [1] was no more than 3000 nM; in experiment [2] it was greater than 25000 nM; in experiment [3], 3000 to 25000 nM; in experiment [4] it was 3000 to 25000 nM.

As to `Nc1nnc(-c2c(Nc3ccc(I)cc3F)cncc2-c2ccccc2Cl)o1` [Example 57, [4-(5-Amino-[1,3,4]oxadiazol-2-yl)-5-(2-chloro-phenyl)-pyridin-3-yl]-(2-fluoro-4-iodo-phenyl)-amine], the IC50 in experiment [1], in experiment [2], in experiment [3] and in experiment [4] was no more than 3000 nM throughout.

Take `Nc1nnc(-c2c(Nc3ccc(I)cc3F)cncc2-c2ccccc2F)o1` [Example 58, [4-(5-Amino-[1,3,4]oxadiazol-2-yl)-5-(2-fluoro-phenyl)-pyridin-3-yl]-(2-fluoro-4-iodo-phenyl)-amine]: the IC50 in experiment [1], in experiment [2], in experiment [3] and in experiment [4] was no more than 3000 nM each time.

For `Fc1cc(I)ccc1Nc1cncc(-c2ccccc2F)c1-c1c[nH]nn1` [Example 60, (2-Fluoro-4-iodo-phenyl)-[5-(2-fluoro-phenyl)-4-(1H-[1,2,3]triazol-4-yl)-pyridin-3-yl]-amine], the IC50 in experiment [1], in experiment [2], in experiment [3] and in experiment [4] was no more than 3000 nM throughout.

As to `Fc1cc(I)ccc1Nc1cnccc1-c1ccn[nH]1` [Example 61, (2-Fluoro-4-iodo-phenyl)-[4-(2H-pyrazol-3-yl)-pyridin-3-yl]-amine], the IC50 was no more than 3000 nM in experiment [1], 3000 to 25000 nM in experiment [2], no more than 3000 nM in experiment [3] and no more than 3000 nM in experiment [4].

Regarding `Fc1cc(I)ccc1Nc1cnccc1-c1nnn[nH]1` [Example 62, N-(2-fluoro-4-iodophenyl)-4-(1H-tetrazol-5-yl)pyridin-3-amine], the IC50 in experiment [1] is no more than 3000 nM; in experiment [2], greater than 25000 nM; in experiment [3], greater than 25000 nM; in experiment [4] it was greater than 25000 nM.

Regarding `C[Si](C)(C)c1[nH]nnc1-c1ccncc1Nc1ccc(I)cc1F` [Example 63, N-(2-fluoro-4-iodophenyl)-4-[5-(trimethylsilyl)-1H-1,2,3-triazol-4-yl]pyridin-3-amine], the IC50 in experiment [1], in experiment [2], in experiment [3] and in experiment [4] was no more than 3000 nM each time.

For the molecule `Fc1cc(I)ccc1Nc1cnccc1-c1c[nH]nn1` [Example 64, N-(2-fluoro-4-iodophenyl)-4-(1H-1,2,3-triazol-4-yl)pyridin-3-amine], the IC50 in experiment [1], in experiment [2], in experiment [3] and in experiment [4] was no more than 3000 nM throughout.

For `Fc1cc(I)ccc1Nc1cnccc1-c1cn[nH]c1` [Example 65, (2-Fluoro-4-iodo-phenyl)-[4-(1H-pyrazol-4-yl)-pyridin-3-yl]-amine], the IC50 in experiment [1], in experiment [2], in experiment [3] and in experiment [4] was no more than 3000 nM each time.
